Results reported in patent publication US20250382317A1 (EVEXTA BIO, priority 2022, published 2025).
≈ marks a conversion by molar mass, not a printed value. Where a name gives a salt, the structure may show the parent alone.

Key:
[1] = Solubility in HCl 0.01N (pH 1.0) and phosphate saline buffer (pH 7.4), LC-MSMS; settings: thermodynamic from solid
Description: (§1) For each compound, three solutions were prepared in HCl 0.01N (pH 1.0) at 500 μM and three solutions in phosphate saline buffer (pH 7.4) at 500 μM. The solutions were prepared by dissolving each compound in the adequate solvent in opaque tubes and stirred 24 hours at room temperature. After 24 hours, for each solution, an aliquot was centrifuged 10 minutes at 3 500 rpm in order to separate the insoluble fraction from the soluble fraction. The supernatant was taken and diluted in H2O (1/20) before injection in LC-MSMS. After HPLC separation, analytes are detected and quantified by mass spectrometry. A standard curve is performed for each test substance. The solubility of each test substance was determined by calculating the concentration of each supernatant according to the standard curve.

Cathepsin B = Cathepsin B (Homo sapiens, UniProt P07858); experiment: Cathepsin-B mediated drug release test; format: in vitro ADME; settings: 10 units/mL activated Cathepsin B, 25 mM sodium acetate pH 5.5, 37° C., 0-120 min, LC-MS of released free drug (FIG. 1)
Description: Drug release of (Z)-3-(2-(5-bromo-1H-indol-3-yl)-2-cyanovinyl)-4-methoxybenzonitrile from Example 27 was performed using cathepsin B enzyme.
Cathepsin B (50 units/mL) was preincubated in activation buffer containing 25 mM sodium acetate (pH 5.5), 30 mM DTT and 15 mM EDTA for 15 min at 37° C. and then added as a 20% (v/v) addition to initiate each reaction.
Final in vitro cathepsin B reaction mixtures will contain 25 mM sodium acetate (pH 5.5), 10 units/mL activated Cathepsin B, 30 mM DTT and 15 mM EDTA, and 0.5 μg/mL of Example 27 in a 2.5% (v/v) incubation sample background.
Reactions will be terminated by addition of organic solvent and the supernatant analyzed by LC-MS to quantify released free drug.

physchem = settings: pH 7.4, aqueous buffer, thermodynamic from solid
Description: as §1

[2] = phosphate saline buffer, pH 7.4, aqueous buffer
[3] = HCl 0.01N, pH 1, simulated gastric fluid

Row | SMILES | solubility at 24 h [1, 2] | Drug release of (Z)-3-(2-(5-bromo-1H-indol-3-yl)-2-cyanovinyl)-4-methoxybenzonitrile (Cathepsin B) | solubility (physchem) | solubility at 24 h [1, 3]
1 | COc1ccc(C#N)cc1/C=C(\C#N)c1cn(C(=O)CCCCP(=O)([O-])[O-])c2ccc(Br)cc12.[Na+].[Na+] [Example 14, disodium (Z)-5-(5-bromo-3-(1-cyano-2-(5-cyano-2-methoxyphenyl)vinyl)-1H-indol-1-yl)-5-oxopentylphosphonate] | 180 µM |  |  | 
2 | COc1ccc(C#N)cc1/C=C(\C#N)c1cn(C(=O)OCc2ccc(NC(=O)[C@H](CCCNC(N)=O)NC(=O)[C@@H](NC(=O)[C@H](CS(=O)(=O)O)NC(=O)CCOCCOCCOCCOCCNC(=O)CCN3C(=O)CC(SC[C@H](NC(C)=O)C(=O)O)C3=O)C(C)C)cc2)c2ccc(Br)cc12 (stereo partly drawn) [Example 27, N-acetyl-S-(1-((R)-2-(((S)-1-(((S)-1-((4-(((5-bromo-3-((Z)-1-cyano-2-(5-cyano-2-methoxyphenyl)vinyl)-1H-indole-1-carbonyl)oxy)methyl)phenyl)amino)-1-oxo-5-ureidopentan-2-yl)amino)-3-methyl-1-oxobutan-2-yl)carbamoyl)-4,20-dioxo-1-sulfo-7,10,13,16-tetraoxa-3,19-diazadocosan-22-yl)-2,5-dioxopyrrolidin-3-yl)-L-cysteine] |  | efficient drug release |  | 
3 | COc1ccc(C#N)cc1/C=C(\C#N)c1cn(C(=O)OCc2ccc(NC(=O)[C@H](CCCNC(N)=O)NC(=O)[C@@H](NC(=O)CCOCCOCCOCCOCCNC(=O)CCN3C(=O)C=CC3=O)C(C)C)cc2)c2ccc(Br)cc12 [Example 22, [4-[[(2S)-2-[[(2S)-2-[3-[2-[3-(2,5-dioxopyrrol-1-yl)propanoylamino]ethoxy](peg4)propanoylamino]-3-methyl-butanoyl]amino]-5-ureido-pentanoyl]amino]phenyl]methyl 5-bromo-3-[(Z)-1-cyano-2-(5-cyano-2-methoxy-phenyl)vinyl]indole-1-carboxylate] |  |  | 2 µM (≈ 2.36 µg/mL) | 
4 | COc1ccc2c(/C(C#N)=C/c3cc(C#N)ccc3OC)cn(C(=O)CCCCP(=O)([O-])O)c2c1.[Na+] [Example 11, sodium (Z)-hydrogen5-(3-(1-cyano-2-(5-cyano-2-methoxyphenyl)vinyl)-6-methoxy-1H-indol-1-yl)-5-oxopentylphosphonate] | 476 µM |  |  | 10 µM
5 | COc1ccc(C#N)cc1/C=C(\C#N)c1cn(C(=O)OCc2ccc(NC(=O)[C@H](CCCNC(N)=O)NC(=O)[C@@H](NC(=O)[C@H](CS(=O)(=O)O)NC(=O)CCOCCOCCOCCOCCNC(=O)CCN3C(=O)C=CC3=O)C(C)C)cc2)c2ccc(Br)cc12 [Example 26] |  |  | 175 µM (≈ 233 µg/mL) | 
6 | COc1ccc(C#N)cc1/C=C(\C#N)c1cn(C(=O)CCCP(=O)([O-])O)c2ccc(Br)cc12.[Na+] [Example 8, sodium (Z)-hydrogen4-(5-bromo-3-(1-cyano-2-(5-cyano-2-methoxyphenyl)vinyl)-1H-indol-1-yl)-4 oxobutylphosphonate] | 71 µM |  |  | < 5 µM
7 | COc1ccc(C#N)cc1/C=C(\C#N)c1cn(C(=O)CCP(=O)([O-])O)c2ccc(Br)cc12.[Na+] [Example 7, sodium (Z)-hydrogen3-(5-bromo-3-(1-cyano-2-(5-cyano-2-methoxyphenyl)vinyl)-1H-indol-1-yl)-3-oxopropylphosphonate] | 103 µM |  |  | < 5 µM
8 | COc1ccc2c(/C(C#N)=C/c3cc(C#N)ccc3OC)cn(C(=O)CCCCCCP(=O)([O-])O)c2c1.[Na+] [Example 12, sodium (Z)-hydrogen7-(3-(1-cyano-2-(5-cyano-2-methoxyphenyl)vinyl)-6-methoxy-1H-indol-1-yl)-7-oxoheptylphosphonate] | 465 µM |  |  | 109 µM
9 | COc1ccc(C#N)cc1/C=C(\C#N)c1cn(C(=O)CCCCCCP(=O)(O)O)c2ccc(Br)cc12 [Example 3, (Z)-7-(5-bromo-3-(1-cyano-2-(5-cyano-2-methoxyphenyl)vinyl)-1H-indol-1-yl)-7-oxoheptylphosphonic acid] | 294 µM (≈ 168 µg/mL) |  |  | 
10 | COc1ccc(C#N)cc1/C=C(\C#N)c1cn(C(=O)OCc2ccc(NC(=O)[C@H](CCCNC(N)=O)NC(=O)[C@@H](NC(=O)C(CS(=O)(=O)O)NC(=O)OC(C)(C)C)C(C)C)cc2)c2ccc(Br)cc12 (some centres unmarked) [Example 24] |  |  | 201 µM (≈ 208 µg/mL) | 
11 | COc1ccc(C#N)cc1/C=C(\C#N)c1cn(C(=O)CCCP(=O)([O-])[O-])c2ccc(Br)cc12.[Na+].[Na+] [Example 13, disodium (Z)-4-(5-bromo-3-(1-cyano-2-(5-cyano-2-methoxyphenyl)vinyl)-1H-indol-1-yl)-4-oxobutylphosphonate] | 45 µM |  |  | 19 µM
12 | COc1ccc(C#N)cc1/C=C(\C#N)c1cn(C(=O)CCCCP(=O)(O)O)c2ccc(Br)cc12 [Example 1, (Z)-5-(5-bromo-3-(1-cyano-2-(5-cyano-2-methoxyphenyl)vinyl)-1H-indol-1-yl)-5-oxopentylphosphonic acid] | 497 µM (≈ 270 µg/mL) |  |  | 
13 | COc1ccc(C#N)cc1/C=C(\C#N)c1cn(C(=O)CCCCP(=O)([O-])O)c2ccc(Br)cc12.[Na+] [Example 6, Sodium (Z)-hydrogen5-(5-bromo-3-(1-cyano-2-(5-cyano-2-methoxyphenyl)vinyl)-1H-indol-1-yl)-5-oxopentylphosphonate] | 206 µM |  |  | 34 µM
14 | COc1ccc(C#N)cc1/C=C(\C#N)c1cn(C(=O)OCc2ccc(O[C@@H]3O[C@H](C(=O)O)[C@@H](O)[C@H](O)[C@H]3O)cc2)c2ccc(Br)cc12 [Example 19, (2S,3S,4S,5R,6S)-6-[4-[[5-bromo-3-[(Z)-1-cyano-2-(5-cyano-2-methoxy-phenyl)vinyl]indole-1-carbonyl]oxymethyl]phenoxy]-3,4,5-trihydroxy-tetrahydropyran-2-carboxylic acid] | 452 µM (≈ 318 µg/mL) |  |  | 
15 | COc1ccc(C#N)cc1/C=C(\C#N)c1cn(C(=O)CCCP(=O)(O)O)c2ccc(Br)cc12 [Example 16, (S)-2,6-diaminohexanoic acid compound with (Z)-4-(5-bromo-3-(1-cyano-2-(5-cyano-2-methoxyphenyl)vinyl)-1H-indol-1-yl)-4-oxobutylphosphonic acid (2:1)] | 35 µM (≈ 18.5 µg/mL) |  |  | < 10 µM
16 | COc1ccc(C#N)cc1/C=C(\C#N)c1cn(C(=O)CCP(=O)(O)O)c2ccc(Br)cc12 [Example 2, (Z)-3-(5-bromo-3-(1-cyano-2-(5-cyano-2-methoxyphenyl)vinyl)-1H-indol-1-yl)-3-oxopropylphosphonic acid] | 12 µM (≈ 6.17 µg/mL) |  |  | 
17 | COc1ccc2c(/C(C#N)=C/c3cc(C#N)ccc3OC)cn(C(=O)CCCCP(=O)(O)O)c2c1 [Example 4, (Z)-5-(3-(1-cyano-2-(5-cyano-2-methoxyphenyl)vinyl)-6-methoxy-1H-indol-1-yl)-5-oxopentylphosphonic acid] | 33 µM (≈ 16.3 µg/mL) |  |  | 
18 | COc1ccc(C#N)cc1/C=C(\C#N)c1c[nH]c2ccc(Br)cc12 [Example 38 of WO 2014/086964, (Z)-3-(2-(5-bromo-1H-indol-3-yl)-2-cyanovinyl)-4-methoxybenzonitrile, reference compound] | < 5 µM |  |  | < 5 µM
19 | COc1ccc(C#N)cc1/C=C(\C#N)c1cn(C(=O)CCCCCCP(=O)([O-])O)c2ccc(Br)cc12.[Na+] [Example 10, sodium (Z)-hydrogen7-(5-bromo-3-(1-cyano-2-(5-cyano-2-methoxyphenyl)vinyl)-1H-indol-1-yl)-7-oxoheptylphosphonate] | 141 µM |  |  | 93 µM
20 | COc1ccc(C#N)cc1/C=C(\C#N)c1cn(C(=O)OCc2ccc(NC(=O)[C@H](CCCNC(N)=O)NC(=O)[C@@H](N)C(C)C)cc2)c2ccc(Br)cc12 [Example 21, hydrochloride] |  |  | 471 µM | 
